Experimental findings from patent US5459260A, “Tricyclic or tetracyclic carbapenem compounds, their production and use” (Takeda Chemical Industries, Ltd., priority 1991, dated 1995) are described below.

In brackets after ≈: the same amount, converted by molar mass.

Assay in all cases: MIC by the agar dilution method
What all share (type): cell-based

One assay has as its system C. diphtheriae Tronto. The note with it: Corynebacterium diphtheriae, 10^8 CFU/ml, Trypticase soy agar, 37° C. overnight. As for the experimental part:
(§1) The MICs of the test compound were determined by the agar dilution method. Thus, 1.0 ml portions of serially diluted aqueous solutions of the test compound were poured in petri dishes and admixed with 9.0 ml portions of Trypticase soy agar. Then, a suspension (about 10^8 CFU/ml) of each test strain was smeared on each agar plate and incubated at 37° C. overnight. The lowest concentration of the test compound inhibiting growth of the test strain 100% was regarded as the minimal inhibitory concentration, MIC.

Another assay has as its system C. freundii IFO 12681. The note with it: Citrobacter freundii, IFO12681, 10^8 CFU/ml, Trypticase soy agar, 37° C. overnight. The procedure: as §1
The subject of the next assay is C. freundii TN 474. The note with it: Citrobacter freundii, TN474, 10^8 CFU/ml, Trypticase soy agar, 37° C. overnight. As for the experimental part: as §1
In another assay the test system is E. cloacae IFO 12937. The note with it: Enterobacter cloacae, IFO12937, 10^8 CFU/ml, Trypticase soy agar, 37° C. overnight. As for the experimental part:
as §1

Another assay deals with E. cloacae TN 583. The note with it: Enterobacter cloacae, TN583, 10^8 CFU/ml, Trypticase soy agar, 37° C. overnight. As for the experimental part: as §1
In the next assay the test system is E. coli NIHJ JC-2. The note with it: Escherichia coli, NIHJJC2, 10^8 CFU/ml, Trypticase soy agar, 37° C. overnight. As for the experimental part:
as §1

The subject of another assay is E. coli NIHJ O-111. The note with it: Escherichia coli, NIHJO111, 10^8 CFU/ml, Trypticase soy agar, 37° C. overnight. As for the experimental part:
as §1

A further assay has as its system E. coli NIHJ T-7. The note with it: Escherichia coli, NIHJT7, 10^8 CFU/ml, Trypticase soy agar, 37° C. overnight. As for the experimental part: as §1
The next assay concerns K. oxytoca TN 1711. The note with it: Klebsiella oxytoca, TN1711, 10^8 CFU/ml, Trypticase soy agar, 37° C. overnight. As for the experimental part: as §1
The test system of a further assay is K. pneumoniae DT. The note with it: Klebsiella pneumoniae, 10^8 CFU/ml, Trypticase soy agar, 37° C. overnight. As for the experimental part: as §1
A further assay has as its system M. morganii IFO 3168. The note with it: Morganella morganii, IFO3168, 10^8 CFU/ml, Trypticase soy agar, 37° C. overnight. The procedure:
as §1

The next assay has as its system P. mirabilis IFO 3849. The note with it: Proteus mirabilis, IFO3849, 10^8 CFU/ml, Trypticase soy agar, 37° C. overnight. As for the experimental part:
as §1

In another assay the test system is P. vulgaris IFO 3988. The note with it: Proteus vulgaris, IFO3988, 10^8 CFU/ml, Trypticase soy agar, 37° C. overnight. As for the experimental part: as §1
The next assay deals with S. aureus 1840. The note with it: Staphylococcus aureus, 10^8 CFU/ml, Trypticase soy agar, 37° C. overnight. As for the experimental part:
as §1

The next assay has as its system S. aureus 308A-1. The note with it: Staphylococcus aureus, 308A1, 10^8 CFU/ml, Trypticase soy agar, 37° C. overnight. As for the experimental part:
as §1

In a further assay the test system is S. aureus FDA 209P. The note with it: Staphylococcus aureus, FDA209P, 10^8 CFU/ml, Trypticase soy agar, 37° C. overnight. The procedure: as §1
The subject of a further assay is S. marcescens IFO 12648. The note with it: Serratia marcescens, IFO12648, 10^8 CFU/ml, Trypticase soy agar, 37° C. overnight. The procedure:
as §1

In the next assay the test system is S. mitis America. The note with it: Streptococcus mitis, 10^8 CFU/ml, Trypticase soy agar, 37° C. overnight. As for the experimental part:
as §1

For a further assay, the system named is S. pneumoniae Type I. The note with it: Streptococcus pneumoniae, 10^8 CFU/ml, Trypticase soy agar, 37° C. overnight. As for the experimental part:
as §1

A further assay has as its system S. pyogenes E-14. The note with it: Streptococcus pyogenes, E14, 10^8 CFU/ml, Trypticase soy agar, 37° C. overnight. As for the experimental part: as §1
The subject of the next assay is S. pyogenes S-8. The note with it: Streptococcus pyogenes, S8, 10^8 CFU/ml, Trypticase soy agar, 37° C. overnight. As for the experimental part:
as §1

What is called MIC is the least concentration at which growth counts as inhibited. A low value points to a more susceptible organism.

As for `C[C@@H](O)[C@H]1C(=O)N2C(C(=O)O)=C3[C@@H](CCO)CCO[C@@H]3[C@H]12` [Example 19], the MIC against C. diphtheriae Tronto was 0.2 mg/L (≈ 0.673 µM); against C. freundii IFO 12681 it was 0.2 mg/L (≈ 0.673 µM); in the assay with C. freundii TN 474, 6.25 mg/L (≈ 21 µM); with E. cloacae IFO 12937, 6.25 mg/L (≈ 21 µM); in the assay with E. cloacae TN 583, 12.5 mg/L (≈ 42 µM); against E. coli NIHJ JC-2, under 0.1 mg/L. For the same compound, the MIC with E. coli NIHJ O-111 was under 0.1 mg/L; with E. coli NIHJ T-7, 1.56 mg/L (≈ 5.25 µM); in the assay with K. oxytoca TN 1711 it was 1.56 mg/L (≈ 5.25 µM); against K. pneumoniae DT, 0.2 mg/L (≈ 0.673 µM); with M. morganii IFO 3168, 0.78 mg/L (≈ 2.62 µM); against P. mirabilis IFO 3849 it was 0.39 mg/L (≈ 1.31 µM). Moreover, the MIC is 0.78 mg/L (≈ 2.62 µM) in the assay with P. vulgaris IFO 3988; 0.2 mg/L (≈ 0.673 µM) in the assay with S. aureus 1840; under 0.1 mg/L against S. aureus 308A-1; under 0.1 mg/L against S. aureus FDA 209P; 0.78 mg/L (≈ 2.62 µM) in the assay on S. marcescens IFO 12648; under 0.1 mg/L in the assay on S. mitis America. Also, the MIC against S. pneumoniae Type I, in the assay on S. pyogenes E-14 and with S. pyogenes S-8 was under 0.1 mg/L in each case.
